Measured values published in patent US11840686B2, “Modulation of prekallikrein (PKK) expression” (Ionis Pharmaceuticals, Inc., priority 2013, dated 2023).
Strand notation (5' to 3'): a small letter for the sugar, then the base; units joined by * are phosphorothioate-linked, units joined directly phosphodiester-linked; [ ] holds rarer units or linkages, { } end groups; capitals alone tell only the bases. e = 2'-O-(2-methoxyethyl) (MOE); [5mC] = 5-methylcytosine; d = 2'-deoxy (DNA)

The substances below were run on human PKK mRNA (assay: Antisense inhibition of human PKK mRNA in HepaRG cells, 3,000 nM (Example 1)). Conditions: Table 1; PKK mRNA, HepaRG cells, 3,000 nM, electroporation, ~24 h, relative to untreated control cells.
Format: cell-based
Procedure: Antisense oligonucleotides were designed targeting a PKK nucleic acid and were tested for their effects on PKK mRNA in vitro. HepaRG™ cells, which are terminally differentiated hepatic cells derived from a human hepatic progenitor cell line and retain many characteristics of primary human hepatocytes (Lubberstedt M. et al., J. Pharmacol. Toxicol. Methods 2011 63: 59-68), were used in the screen.
The chimeric antisense oligonucleotides in the tables below were designed as 5-10-5 MOE gapmers. The gapmers are 20 nucleosides in length, wherein the central gap segment comprises of ten 2′-deoxynucleosides and is flanked by wing segments on the 5′ direction and the 3′ direction comprising five nucleosides each. Each nucleoside in the 5′ wing segment and each nucleoside in the 3′ wing segment has a 2′-O-methoxyethyl modification. The internucleoside linkages throughout each gapmer are phosphorothioate linkages. All cytosine residues throughout each gapmer are 5-methylcytosines. “Start site” indicates the 5′-most nucleoside to which the gapmer is targeted in the human gene sequence. “Stop site” indicates the 3′-most nucleoside to which the gapmer is targeted in the human gene sequence.
Cultured HepaRG™ cells at a density of 20,000 cells per well were transfected using electroporation with 3,000 nM antisense oligonucleotide. After a treatment period of approximately 24 hours, RNA was isolated from the cells and PKK mRNA levels were measured by quantitative real-time PCR. Human primer probe set RTS3454 (forward sequence […], designated herein as SEQ ID NO: 20; reverse sequence […], designated herein as SEQ ID NO: 21; probe sequence […], designated herein as SEQ ID NO: 22) was used to measure mRNA levels. PKK mRNA levels were adjusted according to total RNA content, as measured by RIBOGREEN®. The antisense oligonucleotides were tested in a series of experiments that had similar culture conditions. Results are presented as percent inhibition of PKK, relative to untreated control cells.

Compared with “530958 (antisense eT*eT*eA*eA*eA*dA*dT*dT*dG*dA*d[5mC]*dT*d[5mC]*d[5mC]*dT*e[5mC]*eT*e[5mC]*eA*eT) [compound 530958]”, “531000 (eA*eA*eG*eA*eA*dA*d[5mC]*dA*d[5mC]*dT*dT*dA*d[5mC]*dA*d[5mC]*eT*eT*e[5mC]*eT*e[5mC]; antisense) [compound 531000]” is lower in “% inhibition” value: 60% for the first, 1% for the second.

Compared with “530986 (e[5mC]*eG*eG*eG*eT*dA*dA*dA*dT*dT*dT*dT*dA*dG*dA*eA*eT*eG*eG*e[5mC]; antisense) [compound 530986]”, “530979 (antisense eG*eG*eT*eT*eA*dA*dA*dA*dG*dG*d[5mC]*dT*dA*dT*dA*eT*e[5mC]*e[5mC]*eA*eG) [compound 530979]” is lower in “% inhibition” value: 62% for the first, 35% for the second.

First: 530945 (antisense eA*eT*e[5mC]*e[5mC]*e[5mC]*d[5mC]*dA*d[5mC]*d[5mC]*dT*d[5mC]*dT*dG*dA*dA*eG*eA*eA*eG*eG) [compound 530945]
Second: 530932 (antisense eT*eG*eT*e[5mC]*eA*d[5mC]*dT*dT*dA*dA*dA*dA*dA*dT*dG*eA*eA*e[5mC]*eG*eG) [compound 530932]
The “% inhibition” value of the first is lower: 0% for the first, 52% for the second.

First: 530955 (antisense e[5mC]*eA*eA*eA*e[5mC]*d[5mC]*dT*dT*dT*dT*d[5mC]*dT*d[5mC]*d[5mC]*dA*eT*eG*eT*e[5mC]*eA) [compound 530955]
Second: 530987 (eA*e[5mC]*eT*e[5mC]*e[5mC]*d[5mC]*dG*dG*dG*dT*dA*dA*dA*dT*dT*eT*eT*eA*eG*eA; antisense) [compound 530987]
The “% inhibition” value of the first is higher: 55% for the first, 0% for the second.

Going from “530975 (antisense eG*eT*eG*eT*eT*dT*dT*d[5mC]*dT*dT*dG*dA*dG*dG*dA*eG*eT*eA*eG*eA) [compound 530975]” to “530952 (antisense e[5mC]*eT*eG*eA*eA*dT*dA*dG*d[5mC]*dA*dA*dA*d[5mC]*dA*d[5mC]*e[5mC]*eT*eT*eG*eG) [compound 530952]”, the “% inhibition” value falls from 41% to 38%.

Same assay, conditions: Table 2; PKK mRNA, HepaRG cells, 3,000 nM, electroporation, ~24 h, relative to untreated control cells

First: 531031 (antisense eT*eT*eT*eG*eG*dA*dA*dT*dT*d[5mC]*dA*dG*dT*dG*dT*eA*eA*eT*eT*e[5mC]) [compound 531031]
Second: 531018 (eG*eA*e[5mC]*e[5mC]*e[5mC]*dA*d[5mC]*dT*dG*dG*dT*dG*dT*d[5mC]*d[5mC]*eT*eA*eT*eG*eA; antisense) [compound 531018]
The “% inhibition” value of the first is higher: 59% for the first, 54% for the second.

First: 531043 (antisense eA*eT*eT*eT*eG*dT*dT*dA*d[5mC]*d[5mC]*dA*dA*dA*dG*dG*eA*eA*eT*eA*eT) [compound 531043]
Second: 531014 (eA*eG*e[5mC]*eT*eT*d[5mC]*dA*d[5mC]*d[5mC]*dT*dG*d[5mC]*dA*dG*dG*e[5mC]*eT*e[5mC]*eA*e[5mC]; antisense) [compound 531014]
The “% inhibition” value of the first is higher: 27% for the first, 0% for the second.

Compared with “531020 (eA*eA*eG*e[5mC]*e[5mC]*d[5mC]*dA*dT*d[5mC]*dA*dA*dA*dG*d[5mC]*dA*eG*eT*eG*eG*eG; antisense) [compound 531020]”, “531081 (eT*eG*eG*eT*eT*dT*dT*dT*dG*dG*dA*dA*dT*dT*d[5mC]*eT*eG*eA*eA*eA; antisense) [compound 531081]” is higher in “% inhibition” value: 0% for the first, 14% for the second.

Compared with “531061 (antisense eT*eG*e[5mC]*eT*e[5mC]*d[5mC]*d[5mC]*dT*dG*d[5mC]*dG*dG*dG*d[5mC]*dA*e[5mC]*eA*eG*e[5mC]*e[5mC]) [compound 531061]”, “531068 (e[5mC]*e[5mC]*eA*eT*eG*dT*dA*d[5mC]*dT*d[5mC]*dA*dG*d[5mC]*dG*dA*e[5mC]*eT*eT*eT*eG; antisense) [compound 531068]” is higher in “% inhibition” value: 52% for the first, 59% for the second.

First: 531047 (antisense eA*eT*e[5mC]*eT*eT*dG*dA*dT*dA*dT*d[5mC]*dT*dT*dT*dT*e[5mC]*eT*eG*eG*e[5mC]) [compound 531047]
Second: 531033 (antisense eA*eT*eT*eG*eG*dT*dT*dT*dT*dT*dG*dG*dA*dA*dT*eT*e[5mC]*eA*eG*eT) [compound 531033]
The “% inhibition” value of the first is higher: 68% for the first, 53% for the second.

Going from “531016 (eT*eG*eT*e[5mC]*e[5mC]*dT*dA*dT*dG*dA*dG*dT*dG*dA*d[5mC]*e[5mC]*e[5mC]*eT*e[5mC]*e[5mC]; antisense) [compound 531016]” to “531036 (antisense eG*eT*eG*eT*e[5mC]*dA*d[5mC]*d[5mC]*dT*dT*dT*dG*dG*dA*dA*eG*eG*eT*eA*eG) [compound 531036]”, the “% inhibition” value rises from 39% to 71%.

In the case of “531064 (antisense eG*eT*eG*eT*eA*dG*dA*d[5mC]*dA*d[5mC]*d[5mC]*dA*dG*dG*dT*eT*eG*e[5mC]*eT*e[5mC]) [compound 531064]”, the “% inhibition” value is reported as 56%.

Same assay, conditions: Table 3; HepaRG cells, electroporation with 3,000 nM antisense oligonucleotide, approx. 24 hours; PKK mRNA by RT-PCR (RTS3454), relative to untreated control cells

First: 531134 (antisense eT*eT*eA*e[5mC]*e[5mC]*d[5mC]*dA*dT*d[5mC]*dA*dA*dA*dG*d[5mC]*dA*eG*eT*eG*eG*eG) [compound 531134]
Second: 531152 (antisense eG*eT*eT*eA*eT*dG*dG*dA*dT*dA*dT*dA*dG*dA*d[5mC]*eT*eT*eT*eA*eA) [compound 531152]
The “% inhibition” value of the first is higher: 6% for the first, 0% for the second.

Compared with “531130 (antisense eT*eT*e[5mC]*eT*eG*dT*dG*dT*d[5mC]*dA*dA*dT*dT*dA*dT*eA*eA*eA*e[5mC]*eA) [compound 531130]”, “531109 (antisense eA*eG*e[5mC]*e[5mC]*e[5mC]*dA*dA*dG*dG*dA*dA*d[5mC]*dA*dT*d[5mC]*eT*e[5mC]*eA*e[5mC]*e[5mC]) [compound 531109]” is higher in “% inhibition” value: 0% for the first, 52% for the second.

Going from “531142 (antisense eT*eG*eT*eT*eT*dA*dA*dA*dA*dT*dA*dT*d[5mC]*dT*d[5mC]*eT*eA*eT*eA*e[5mC]) [compound 531142]” to “531086 (e[5mC]*e[5mC]*eT*eG*e[5mC]*d[5mC]*dT*d[5mC]*d[5mC]*dT*dG*dG*d[5mC]*dA*dG*e[5mC]*e[5mC]*eT*eT*e[5mC]; antisense) [compound 531086]”, the “% inhibition” value rises from 8% to 48%.

Going from “531156 (antisense eT*e[5mC]*eT*eG*eA*dA*dA*dA*dG*d[5mC]*d[5mC]*d[5mC]*dT*d[5mC]*d[5mC]*eG*eA*eG*e[5mC]*eT) [compound 531156]” to “531104 (eA*e[5mC]*eT*eT*eG*dA*d[5mC]*d[5mC]*dT*dT*dA*d[5mC]*dT*dG*dT*eT*eT*eT*eA*eG; antisense) [compound 531104]”, the “% inhibition” value rises from 0% to 20%.

Compared with “531140 (antisense eT*e[5mC]*eT*eT*e[5mC]*d[5mC]*dA*dG*dG*d[5mC]*d[5mC]*dA*dA*d[5mC]*d[5mC]*eA*e[5mC]*e[5mC]*eT*eT) [compound 531140]”, “531144 (antisense eT*eG*eA*eA*eG*dA*dT*dT*d[5mC]*dT*dA*dT*dT*dT*dA*eA*e[5mC]*eA*eA*eA) [compound 531144]” is lower in “% inhibition” value: 22% for the first, 0% for the second.

Same assay, conditions: Table 4; HepaRG cells, electroporation with 3,000 nM antisense oligonucleotide, approx. 24 hours; PKK mRNA by RT-PCR (RTS3454), relative to untreated control cells

First: 531185 (antisense eG*eG*eA*e[5mC]*e[5mC]*dA*dA*dA*dA*d[5mC]*dT*dG*dA*dG*dA*eG*eG*e[5mC]*eA*eG) [compound 531185]
Second: 531179 (antisense eG*eA*eT*eT*eG*dG*dA*d[5mC]*d[5mC]*d[5mC]*dA*dG*dA*d[5mC]*dA*e[5mC]*eT*eA*eT*eA) [compound 531179]
The “% inhibition” value of the first is higher: 63% for the first, 57% for the second.

Compared with “531216 (eA*eA*eA*e[5mC]*eA*d[5mC]*dA*dG*dG*dA*dA*dT*dT*dT*dG*e[5mC]*eA*eG*eA*e[5mC]; antisense) [compound 531216]”, “531227 (eT*eA*e[5mC]*e[5mC]*eA*dA*dT*dT*dT*d[5mC]*dT*dG*dA*dA*dA*eG*eG*eG*e[5mC]*eA; antisense) [compound 531227]” is higher in “% inhibition” value: 33% for the first, 72% for the second.

Going from “531196 (eT*eT*eG*eA*eG*dT*d[5mC]*dA*dG*dA*d[5mC]*dA*dT*d[5mC]*d[5mC]*eT*eG*eT*eG*eA; antisense) [compound 531196]” to “531215 (eT*eA*eG*eA*eG*dA*dT*dT*dT*dT*dA*dT*dG*dT*dA*e[5mC]*eT*eT*eG*eG; antisense) [compound 531215]”, the “% inhibition” value rises from 38% to 63%.

Going from “531192 (eG*eA*eG*eT*eG*d[5mC]*d[5mC]*dA*dT*d[5mC]*dT*dT*d[5mC]*dT*d[5mC]*eT*eG*e[5mC]*eA*e[5mC]; antisense) [compound 531192]” to “531190 (eG*e[5mC]*eA*eG*eT*d[5mC]*dA*d[5mC]*dT*d[5mC]*d[5mC]*dT*d[5mC]*dT*dT*e[5mC]*e[5mC]*eA*eG*e[5mC]; antisense) [compound 531190]”, the “% inhibition” value falls from 61% to 59%.

“531183 (antisense e[5mC]*eA*eT*eA*eA*dG*dA*dA*dT*dG*dT*dG*d[5mC]*dA*d[5mC]*eA*e[5mC]*eA*eA*eA) [compound 531183]” was tested, and the “% inhibition” value was 39%.
